Reference: patent US12077503B2, “Substituted cyclic amides and their use as herbicides” (FMC CORPORATION, priority 2015, dated 2024)

Legend:
Assay type in all cases: in vivo
[1] = tested on: wheat (Triticum aestivum); assay: Test A postemergence; conditions: postemergence, 0 to 100 scale (0 no effect, 100 complete control)
Summary of the method: (§1)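 Greenhouse, ~10 d after spray; visual injury vs untreated controls, 0 = no effect, 100 = complete control. Preemergence: directed soil spray over planted seeds. Postemergence: plants 2–10 cm, 1–2 leaf stage. Loam/sand blend. Compound in non-phytotoxic solvent with surfactant.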

[2] = tested on: ragweed (common ragweed, Ambrosia elatior); assay: Test A postemergence; conditions: postemergence, 0 to 100 scale (0 no effect, 100 complete control)
Summary of the method: as §1

[3] = tested on: pigweed (Amaranthus retroflexus); assay: Test A postemergence; conditions: postemergence, 0 to 100 scale (0 no effect, 100 complete control)
Summary of the method: as §1

[4] = tested on: giant foxtail (Setaria faberii); assay: Test A postemergence; conditions: postemergence, 0 to 100 scale (0 no effect, 100 complete control)
Summary of the method: as §1

[5] = tested on: blackgrass (Alopecurus myosuroides); assay: Test A postemergence; conditions: postemergence, 0 to 100 scale (0 no effect, 100 complete control)
Summary of the method: as §1

[6] = tested on: barnyardgrass (Echinochloa crus-galli); assay: Test A postemergence; conditions: postemergence, 0 to 100 scale (0 no effect, 100 complete control)
Summary of the method: as §1

Kochia (Kochia scoparia) [7] = assay: Test A postemergence; conditions: postemergence, 0 to 100 scale (0 no effect, 100 complete control)
Summary of the method: as §1

[8] = tested on: ryegrass, Italian (Italian ryegrass, Lolium multiflorum); assay: Test A postemergence; conditions: postemergence, 0 to 100 scale (0 no effect, 100 complete control)
Summary of the method: as §1

corn (Zea mays) = assay: Test A postemergence; conditions: postemergence, 0 to 100 scale (0 no effect, 100 complete control)
Summary of the method: as §1

[9] = tested on: Galium (catchweed bedstraw, Galium aparine); assay: Test A postemergence; conditions: postemergence, 0 to 100 scale (0 no effect, 100 complete control)
Summary of the method: as §1

[10] = tested on: ducksalad (Heteranthera limosa); assay: Test B flooded paddy test; conditions: Flood, 250 g ai/ha; 0 to 100 scale where 0 is no effect and 100 is complete control; 13 to 15 d
Summary of the method: (§2)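 Plants at 2-leaf stage flooded to 3 cm above soil, with compounds applied directly to paddy water and that depth maintained. Plants kept in greenhouse 13–15 d. Visual rating versus controls on a 0 (no effect) to 100 (complete control) scale.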

[11] = tested on: sedge, umbrella (small-flower umbrella sedge, Cyperus difformis); assay: Test B flooded paddy test; conditions: Flood, 250 g ai/ha; for Plant response rating, Sedge, Umbrella: 0 to 100 scale where 0 is no effect and 100 is complete control, 13 to 15 d
Summary of the method: as §2

[12] = tested on: barnyardgrass (Echinochloa crus-galli); assay: Test B flooded paddy test; conditions: Flood, 250 g ai/ha; 0 to 100 scale where 0 is no effect and 100 is complete control; 13 to 15 d
Summary of the method: as §2

rice (Oryra sativa) = assay: Test B flooded paddy test; conditions: Flood, 250 g ai/ha; 0 to 100 scale where 0 is no effect and 100 is complete control; 13 to 15 d
Summary of the method: as §2

[13] = tested on: ragweed (common ragweed, Ambrosia elatior); assay: Test A preemergence
Summary of the method: as §1

[14] = tested on: pigweed (Amaranthus retroflexus); assay: Test A preemergence
[15] = tested on: giant foxtail (Setaria faberii); assay: Test A preemergence
Summary of the method: as §1

[16] = tested on: barnyardgrass (Echinochloa crus-galli); assay: Test A preemergence
Summary of the method: as §1

Kochia (Kochia scoparia) [17] = assay: Test A preemergence
Summary of the method: as §1

[18] = tested on: ryegrass, Italian (Italian ryegrass, Lolium multiflorum); assay: Test A preemergence
Summary of the method: as §1

[19] = 125 g ai/ha, visual rating after approx. 10 d
[20] = 500 g ai/ha, visual injury, approx. 10 d
[21] = 125 g ai/ha, Preemergence, visual injury after approximately 10 d, 0 to 100 scale where 0 is no effect and 100 is complete control
[22] = 500 g ai/ha, preemergence, 0 to 100 scale, 0 = no effect, 100 = complete control
[23] = 125 g ai/ha, visual injury after approximately 10 d
[24] = 125 g ai/ha, preemergence, visual rating after approx. 10 d, 0 to 100 scale where 0 is no effect and 100 is complete control

SMILES | Plant response rating, Wheat [1, 20] | Plant response rating, Ragweed [2, 20] | Plant response rating, Pigweed [3, 20] | Plant response rating, Foxtail, Giant [4, 20] | Plant response rating, Blackgrass [5, 19] | Plant response rating, Blackgrass [5, 20] | Plant response rating, Barnyardgrass [6, 19] | Plant response rating, Barnyardgrass [6, 20] | Plant response rating, Kochia (Kochia (Kochia scoparia) [7]; [20]) | Plant response rating, Ryegrass, Italian [8, 20] | Plant response rating, Corn (corn (Zea mays); [20]) | Plant response rating, Galium [9, 20] | Plant response rating, Ducksalad [10] | Plant response rating, Barnyardgrass [12] | Plant response rating, Rice (rice (Oryra sativa)) | Plant response rating, Ragweed [13, 22] | Plant response rating, Pigweed [14, 22] | Plant response rating, Foxtail, Giant [15, 21] | Plant response rating, Foxtail, Giant [15, 22] | Plant response rating, Barnyardgrass [16, 21] | other results
C#Cc1cccc(C2CNC(=O)C2C(=O)Nc2cccc(F)c2F)c1 (racemic) [Compound 677] | 20 | 30 | 20 | 70 | 0 | 20 | 80 | 90 | 40 | 30 | 40 | 40 | 100 | 30 | 0 | 0 | 0 | 40 | 90 | 60 | Plant response rating, Wheat [1, 19]: 0; Plant response rating, Ragweed [2, 19]: 0; Plant response rating, Pigweed [3, 19]: 0; Plant response rating, Foxtail, Giant [4, 19]: 20; Plant response rating, Kochia (Kochia (Kochia scoparia) [7]; [19]): 0; Plant response rating, Ryegrass, Italian [8, 19]: 0; Plant response rating, Corn (corn (Zea mays); [19]): 0; Plant response rating, Galium [9, 19]: 0; Plant response rating, Sedge, Umbrella [11]: 0; Plant response rating, Ragweed [13, 21]: 0; Plant response rating, Pigweed [14, 21]: 0; Plant response rating, Barnyardgrass [16, 22]: 90; Plant response rating, Kochia (Kochia (Kochia scoparia) [17]; [21]): 20; Plant response rating, Kochia (Kochia (Kochia scoparia) [17]; [22]): 40; Plant response rating, Ryegrass, Italian [18, 21]: 20; Plant response rating, Ryegrass, Italian [18, 22]: 40
Cc1ccc(C2CNC(=O)C2C(=O)Nc2ccc(F)cc2F)cc1C(F)(F)F (racemic) [Compound 680] | 0 | 0 | 0 | 30 | 20 | 20 | 30 | 60 | 0 | 0 | 20 | 20 | 30 | 20 | 15 | 0 | 0 | 60 | 90 | 30 | Plant response rating, Wheat [1, 19]: 0; Plant response rating, Ragweed [2, 19]: 0; Plant response rating, Pigweed [3, 19]: 0; Plant response rating, Foxtail, Giant [4, 19]: 0; Plant response rating, Kochia (Kochia (Kochia scoparia) [7]; [19]): 0; Plant response rating, Ryegrass, Italian [8, 19]: 0; Plant response rating, Corn (corn (Zea mays); [19]): 20; Plant response rating, Galium [9, 19]: 0; Plant response rating, Sedge, Umbrella [11]: 0; Plant response rating, Ragweed [13, 21]: 0; Plant response rating, Pigweed [14, 21]: 0; Plant response rating, Barnyardgrass [16, 22]: 90; Plant response rating, Kochia (Kochia (Kochia scoparia) [17]; [21]): 0; Plant response rating, Kochia (Kochia (Kochia scoparia) [17]; [22]): 20; Plant response rating, Ryegrass, Italian [18, 21]: 0; Plant response rating, Ryegrass, Italian [18, 22]: 20
O=C1NCC(c2cccc(Br)c2)C1C(=O)Nc1ccccc1F (racemic) [Compound 686] | 30 | 20 | 20 | 90 | 20 | 40 | 90 | 90 | 30 | 40 | 50 | 20 | 90 | 35 | 0 | 0 | 20 | 90 | 90 | 90 | Plant response rating, Wheat [1, 23]: 0; Plant response rating, Ragweed [2, 23]: 20; Plant response rating, Pigweed [3, 23]: 0; Plant response rating, Foxtail, Giant [4, 23]: 80; Plant response rating, Kochia (Kochia (Kochia scoparia) [7]; [23]): 0; Plant response rating, Ryegrass, Italian [8, 23]: 20; Plant response rating, Corn (corn (Zea mays); [23]): 0; Plant response rating, Galium [9, 23]: 0; Plant response rating, Sedge, Umbrella [11]: 0; Plant response rating, Ragweed [13, 24]: 0; Plant response rating, Pigweed [14, 24]: 0; Plant response rating, Barnyardgrass [16, 22]: 90; Plant response rating, Kochia (Kochia (Kochia scoparia) [17]; [21]): 0; Plant response rating, Kochia (Kochia (Kochia scoparia) [17]; [22]): 40; Plant response rating, Ryegrass, Italian [18, 24]: 0; Plant response rating, Ryegrass, Italian [18, 22]: 20
O=C1NCC(c2cccc(Br)c2)C1C(=O)Nc1ccc(F)c(F)c1F (racemic) [Compound 689] | 60 | 50 | 60 | 90 | 50 | 60 | 90 | 90 | 60 | 60 | 80 | 50 | 98 | 40 | 0 | 30 | 40 | 90 | 90 | 90 | Plant response rating, Wheat [1, 23]: 20; Plant response rating, Ragweed [2, 23]: 0; Plant response rating, Pigweed [3, 23]: 30; Plant response rating, Foxtail, Giant [4, 23]: 80; Plant response rating, Kochia (Kochia (Kochia scoparia) [7]; [23]): 30; Plant response rating, Ryegrass, Italian [8, 23]: 30; Plant response rating, Corn (corn (Zea mays); [23]): 60; Plant response rating, Galium [9, 23]: 50; Sedge, Umbrella plant response rating ([11]; scale of 0 to 100 where 0 is no effect and 100 is complete control): 0; Plant response rating, Ragweed [13, 24]: 0; Plant response rating, Pigweed [14, 24]: 20; Plant response rating, Barnyardgrass [16, 22]: 90; Plant response rating, Kochia (Kochia (Kochia scoparia) [17]; [21]): 20; Plant response rating, Kochia (Kochia (Kochia scoparia) [17]; [22]): 60; Plant response rating, Ryegrass, Italian [18, 24]: 0; Plant response rating, Ryegrass, Italian [18, 22]: 20
